Source: the supplement of paper PMC8612539
Converted amounts (≈) assume the structure as drawn.

How the values were obtained:
Enterococcus spp. = assay: minimum inhibitory concentration (MIC)
Description: (§1)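 Broth microdilution MIC (Sensititre BOPO7F bovine plate, CLSI methods) of 19 antimicrobials against field isolates of P. multocida, M. haemolytica, H. somni (deep nasopharyngeal swabs) and E. coli, Enterococcus spp. (rectal swabs) from weaned dairy heifers. Incubation 16-24 h at 35 C. MIC is the lowest concentration preventing visible growth. Values with <= or > lie at the tested range limits. Trimethoprim-sulfamethoxazole is given as the trimethoprim component of a 1:19 mixture.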

Histophilus somni = assay: minimum inhibitory concentration (MIC)
Description: as §1

NC[C@@H]1O[C@H](O[C@H]2[C@@H](O)[C@H](O[C@@H]3[C@@H](O)[C@H](N)C[C@H](N)[C@H]3O[C@H]3O[C@H](CN)[C@@H](O)[C@H](O)[C@H]3N)O[C@@H]2CO)[C@H](N)[C@@H](O)[C@@H]1O [Neomycin]
minimum inhibitory concentration [µg/mL]
Conditions	Enterococcus spp.	Histophilus somni
isolate (source animal id): 2	≤ 4	–
isolate (source animal id): 3	–	32 (≈ 52.1 µM)
isolate (source animal id): 4	–	32 (≈ 52.1 µM)
isolate (source animal id): 7	–	16 (≈ 26 µM)
isolate (source animal id): 14	–	16 (≈ 26 µM)
isolate (source animal id): 15	–	32 (≈ 52.1 µM)
isolate (source animal id): 17	–	16 (≈ 26 µM)
isolate (source animal id): 18	–	32 (≈ 52.1 µM)
isolate (source animal id): 20	–	≤ 4
isolate (source animal id): 23	–	32 (≈ 52.1 µM)
isolate (source animal id): 35	> 32	–
isolate (source animal id): 42	> 32	–
isolate (source animal id): 44	> 32	–
isolate (source animal id): 45	–	32 (≈ 52.1 µM)
isolate (source animal id): 53	–	32 (≈ 52.1 µM)
isolate (source animal id): 79	> 32	–
isolate (source animal id): 83	–	32 (≈ 52.1 µM)
isolate (source animal id): 88	8 (≈ 13 µM)	32 (≈ 52.1 µM)
isolate (source animal id): 91	8 (≈ 13 µM)	–
isolate (source animal id): 92	16 (≈ 26 µM)	> 32
isolate (source animal id): 93	–	8 (≈ 13 µM)
isolate (source animal id): 99	–	> 32
isolate (source animal id): 100	–	> 32
isolate (source animal id): 105	–	32 (≈ 52.1 µM)
isolate (source animal id): 107	–	> 32
isolate (source animal id): 108	–	> 32
isolate (source animal id): 109	–	> 32
isolate (source animal id): 111	16 (≈ 26 µM)	–
isolate (source animal id): 122	> 32	–
isolate (source animal id): 123	16 (≈ 26 µM)	–
isolate (source animal id): 133	32 (≈ 52.1 µM)	–
isolate (source animal id): 158	> 32	–
isolate (source animal id): 168	32 (≈ 52.1 µM)	–
isolate (source animal id): 169	16 (≈ 26 µM)	–
isolate (source animal id): 171	8 (≈ 13 µM)	–
isolate (source animal id): 175	> 32	–
isolate (source animal id): 177	32 (≈ 52.1 µM)	–
isolate (source animal id): 181	32 (≈ 52.1 µM)	–
isolate (source animal id): 182	32 (≈ 52.1 µM)	–
isolate (source animal id): 183	32 (≈ 52.1 µM)	–
isolate (source animal id): 187	16 (≈ 26 µM)	–
isolate (source animal id): 190	32 (≈ 52.1 µM)	–
isolate (source animal id): 194	8 (≈ 13 µM)	–
isolate (source animal id): 195	32 (≈ 52.1 µM)	–
isolate (source animal id): 197	16 (≈ 26 µM)	–
isolate (source animal id): 211	> 32	–
isolate (source animal id): 214	> 32	–
isolate (source animal id): 222	> 32	–
isolate (source animal id): 223	16 (≈ 26 µM)	–
isolate (source animal id): 228	> 32	–
isolate (source animal id): 230	> 32	–
isolate (source animal id): 235	> 32	–
isolate (source animal id): 236	8 (≈ 13 µM)	–
isolate (source animal id): 239	≤ 4	–
isolate (source animal id): 241	> 32	–
isolate (source animal id): 244	8 (≈ 13 µM)	–
isolate (source animal id): 246	16 (≈ 26 µM)	–
isolate (source animal id): 247	> 32	–
isolate (source animal id): 250	16 (≈ 26 µM)	–
isolate (source animal id): 252	> 32	–
isolate (source animal id): 268	8 (≈ 13 µM)	–
isolate (source animal id): 282	16 (≈ 26 µM)	–
isolate (source animal id): 285	> 32	–
isolate (source animal id): 289	16 (≈ 26 µM)	–
isolate (source animal id): 290	16 (≈ 26 µM)	–
isolate (source animal id): 296	32 (≈ 52.1 µM)	–
isolate (source animal id): 298	16 (≈ 26 µM)	–
isolate (source animal id): 301	16 (≈ 26 µM)	–
isolate (source animal id): 310	> 32	–
isolate (source animal id): 320	16 (≈ 26 µM)	–
isolate (source animal id): 331	> 32	–
isolate (source animal id): 333	16 (≈ 26 µM)	–
isolate (source animal id): 341	> 32	–
